Literature values, collected in patent US20220331268A1, “TREATMENT OF SKIN DISORDERS WITH TOPICAL COMBINATION COMPOSITIONS COMPRISING TAPINAROF AND AN ADDITIONAL AHR ACTIVATOR” (Sol-Gel Technologies Ltd., priority 2019, published 2022).

Columns and labels:
[1] = test system: interleukin-6 and interleukin-17A; conditions: mouse models and in vitro human skin studies
[2] = across all groups treated
[3] = 1% tapinarof arm compared with 0.5% arm or vehicle
[4] = psoriasis treatment, single drug; placebo 20.2%

| SMILES | effect on proinflammatory mediators including interleukin-6 and interleukin-17A [1] | skin barrier function [1] | contact dermatitis (side-effect, among most common) [2] [%] | folliculitis (side-effect) [2] [%] | efficacy [3] | onset of action [3] | adverse effects [4] [%] |
| --- | --- | --- | --- | --- | --- | --- | --- |
| CC(C)c1c(O)cc(/C=C/c2ccccc2)cc1O [Tapinarof, 3,5-dihydroxy-4-isopropyl-trans-stilbene] | inhibit | enhance skin barrier function | > 5 | 9 | higher efficacy | quicker onset of action | 44.5 |
| C=C1/C(=C\C=C2/CCC[C@]3(C)[C@@H]([C@H](C)/C=C/[C@@H](O)C4CC4)CC[C@@H]23)C[C@@H](O)C[C@@H]1O [calcipotriene] | – | – | – | – | – | – | 19.5 |
